Data from US9187492B2, “Pyripyropene derivative having ACAT2 inhibiting activity and stable to metabolizing enzymes” (School Juridical Person Kitasato Institute, priority 2010, dated 2015).

Experiments:
[1] = molecular target: T1, ACAT2 (Mus musculus, UniProt O88908); experiment: Measurement of ACAT2-inhibiting activity (murine hepatic microsome, [14C]cholesteryl oleate formation); type: biochemical; conditions: for IC50: murine hepatic microsome membrane fraction, 5 min at 37° C., read-out: Inhibitory activity (concentration required for 50% inhibition of ACAT 2 = IC50); for Specific activity ((IC50 of the test compound)/(IC50 of PRD 043)): relative to PRD 043, class symbols
T1 construct: The resulting sediment was collected as a microsome fraction; from tissue; host or cells: mouse liver (hepatic microsome membrane fraction)
T1 sequence (O88908 1-525): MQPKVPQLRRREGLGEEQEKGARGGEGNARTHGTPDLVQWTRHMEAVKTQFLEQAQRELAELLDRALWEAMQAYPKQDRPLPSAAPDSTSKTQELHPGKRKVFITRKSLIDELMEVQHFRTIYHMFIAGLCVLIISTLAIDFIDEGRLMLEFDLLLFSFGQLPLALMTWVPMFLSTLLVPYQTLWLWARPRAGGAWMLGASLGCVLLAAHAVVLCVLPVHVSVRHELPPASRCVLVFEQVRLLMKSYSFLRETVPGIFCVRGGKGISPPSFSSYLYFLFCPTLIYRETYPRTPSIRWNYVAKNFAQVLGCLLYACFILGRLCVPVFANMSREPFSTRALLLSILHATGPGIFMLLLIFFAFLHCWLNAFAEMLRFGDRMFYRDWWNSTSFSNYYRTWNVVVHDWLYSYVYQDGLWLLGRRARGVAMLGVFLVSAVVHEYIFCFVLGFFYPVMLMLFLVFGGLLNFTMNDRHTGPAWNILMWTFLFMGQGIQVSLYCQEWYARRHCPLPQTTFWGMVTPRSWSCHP
Experimental: The enzyme source which was used was a membrane fraction derived from murine hepatic microsome. Mouse livers were homogenized in buffer solution A (50 mM Tris HCl solution (pH 7.8), 1 mM ethylene diamine tetraacetate, and 1 mM phenylmethanesulfonyl fluoride) using a Potter-type homogenizer (Tokyo-Riko). The homogenate was centrifuged at 12000×g, and the supernatant was subjected to ultracentrifugation at 100000×g. The resulting sediment was collected as a microsome fraction, and this fraction was adjusted so as to have a protein concentration of 5 mg/mL using buffer solution A.
As a control, 10 μL of methanol were used in place of the pyripyropene derivative.
The chloroform layer was evaporated to dryness and was used to spot a thin layer chromatography plate (silica gel plate, Merck, 0.5 mm thickness). Elution for separation was carried out using hexane/diethyl ether/acetic acid (70:30:1, v/v) as an eluant.
wherein the background is the radioactivity of a thin layer chromatography plate which was not spotted.

[2] = Stability against metabolizing enzymes in the liver (hepatic microsome); conditions: time until remaining amount reached 50%, 37° C.; for half-life at 6 μg/mL: female, Sprague-Dawley (SD), rat, liver microsomes, pH 7.4, Half-life; for Half-life: female SD rat hepatic microsome, 6 μg/mL, pH 7.4

In the case of `CC(=O)O[C@H]1CC[C@@]2(C)C(C[C@H](OC(C)=O)[C@@]3(C)Oc4cc(-c5cccnc5)oc(=O)c4[C@H](O)C23)C1(C)COC(=O)c1ccccc1` (some centres unmarked) [PRD177, 11-O-benzoyl-11-deacetylpyripyropene A], the IC50 [1] is reported as 1 to 10 nM, the “Specific activity ((IC50 of the test compound)/(IC50 of PRD 043))” value (shortened to “Specific activity”) [1] is reported as “+++ (10<specific activity≦20)” and the half-life at 6 μg/mL [2] is reported as ≥ 9 h. The Half-life [2] was >9 h.

For `CC(=O)OCC1(C)C2C[C@H](OC(=O)C3CCCCC3)[C@@]3(C)Oc4cc(-c5cccnc5)oc(=O)c4[C@H](O)C3[C@@]2(C)CC[C@@H]1OC(C)=O` (some centres unmarked) [PRD021, reference compound], the half-life at 6 μg/mL [2] was 1 h and the Half-life [2] was <1 h.

With `COc1ccc(CNC(=O)C2(C)C3C[C@H](OC(=O)c4ccc(C#N)cc4)[C@@]4(C)Oc5cc(-c6cccnc6)oc(=O)c5[C@H](O)C4[C@@]3(C)CC[C@@H]2OC(C)=O)c(OC)c1` (some centres unmarked) [PRD071, 7-O-p-cyanobenzoyl-11-deacetoxymethyl-7-deacetyl-11-(2,4-dimethoxybenzylamino)carbonylpyripyropene A] the IC50 [1] was < 0.5 nM, the “Specific activity” value [1] was “++++ (20<specific activity)” and the half-life at 6 μg/mL [2] was ≥ 9 h. The Half-life [2] was >9 h.

For `Cc1cccc(C2OCC3(C)C(CCC4(C)C3CC(OC(=O)c3ccc(C#N)cc3)C3(C)Oc5cc(-c6cccnc6)oc(=O)c5C(O)C43)O2)c1` (centres unmarked) [PRD157, 1,11-O-m-methylbenzylidene-7-O-p-cyanobenzoyl-1,7,11-trideacetylpyripyropene A], the IC50 [1] was < 0.5 nM, the “Specific activity” value [1] was “++++ (20<specific activity)” and the half-life at 6 μg/mL [2] was ≥ 9 h. The Half-life [2] was >9 h.

With `COC(=O)C1(C)C2C[C@H](OC(=O)c3ccc(C#N)cc3)[C@@]3(C)Oc4cc(-c5cccnc5)oc(=O)c4[C@H](O)C3[C@@]2(C)CC[C@@H]1OC(C)=O` (some centres unmarked) [PRD070, 7-O-p-cyanobenzoyl-11-deacetoxymethyl-7-deacetyl-11-methoxy-carbonylpyripyropene A] the IC50 [1] was 0.5 to 1 nM, the “Specific activity” value [1] was “+++ (10<specific activity≦20)” and the half-life at 6 μg/mL [2] was > 9 h.

In the case of `CC(=O)O[C@H]1CC2C(C)(COC(=O)C(C)C)[C@@H](OC(=O)C(C)C)CC[C@]2(C)C2[C@@H](O)c3c(cc(-c4cccnc4)oc3=O)O[C@@]21C` (some centres unmarked) [PRD187, 1,11-O-diisobutyryl-1,11-dideacetylpyripyropene A], the IC50 [1] is reported as 0.5 to 1 nM, the “Specific activity” value [1] is reported as “+++ (10<specific activity≦20)” and the half-life at 6 μg/mL [2] is reported as ≥ 9 h. The Half-life [2] was >9 h.

In the case of `CN(C)c1ccc([C@@H]2OCC3(C)C4C[C@H](OC(=O)c5ccc(C#N)cc5)[C@@]5(C)Oc6cc(-c7cccnc7)oc(=O)c6[C@H](O)C5[C@@]4(C)CC[C@@H]3O2)cc1` (some centres unmarked) [PRD123, 1,11-O-p-dimethylaminobenzylidene-7-O-p-cyanobenzoyl-1,7,11-trideacetylpyripyropene A], the IC50 [1] is reported as < 0.5 nM, the “Specific activity” value [1] is reported as “++++ (20<specific activity)” and the half-life at 6 μg/mL [2] is reported as ≥ 9 h. For the same compound, the Half-life [2] was >9 h.

For `CC12CO[C@@H](c3ccccc3F)O[C@H]1CC[C@@]1(C)C2C[C@H](OC(=O)c2ccc(F)cc2)[C@@]2(C)Oc3cc(-c4cccnc4)oc(=O)c3[C@H](O)C12` (some centres unmarked) [PRD164, 1,11-O-o-fluorobenzylidene-7-O-p-fluorobenzoyl-1,7,11-trideacetylpyripyropene A], the IC50 [1] was 0.5 to 1 nM, the “Specific activity” value [1] was “+++ (10<specific activity≦20)” and the half-life at 6 μg/mL [2] was ≥ 9 h. For the same compound, the Half-life [2] was >9 h.

With `CC(=O)O[C@H]1CC2C3(C)CO[C@@H](c4ccccc4)O[C@H]3CC[C@]2(C)C2[C@@H](O)c3c(cc(-c4cccnc4)oc3=O)O[C@@]21C` (some centres unmarked) [PRD186, 1,11-O-benzylidene-1,11-dideacetylpyripyropene A] the IC50 [1] was 1 to 10 nM, the “Specific activity” value [1] was “+++ (10<specific activity≦20)” and the half-life at 6 μg/mL [2] was ≥ 9 h. For the same compound, the Half-life [2] was >9 h.

In the case of `CC12CO[C@@H](c3ccccc3)O[C@H]1CC[C@@]1(C)C2C[C@H](OC(=O)C2CCCCC2)[C@@]2(C)Oc3cc(-c4cccnc4)oc(=O)c3[C@H](O)C12` (some centres unmarked) [PRD080, 1,11-O-benzylidene-7-O-cyclohexanecarbonyl-1,7,11-trideacetylpyripyropene A], the IC50 [1] is reported as 0.5 to 1 nM, the “Specific activity” value [1] is reported as “+++ (10<specific activity≦20)” and the half-life at 6 μg/mL [2] is reported as > 9 h.

For `CC(C)C(=O)OCC1(C)C2C[C@H](OC(=O)c3ccc([N+](=O)[O-])cc3)[C@@]3(C)Oc4cc(-c5cccnc5)oc(=O)c4[C@H](O)C3[C@@]2(C)CC[C@@H]1OC(=O)C(C)C` (some centres unmarked) [PRD079, 7-O-p-nitrobenzoyl-1,11-O-diisobutyryl-1,7,11-trideacetylpyripyropene A], the IC50 [1] was 0.5 to 1 nM, the “Specific activity” value [1] was “+++ (10<specific activity≦20)” and the half-life at 6 μg/mL [2] was ≥ 9 h. The Half-life [2] was >9 h.

With `Cc1ccccc1[C@@H]1OCC2(C)C3C[C@H](OC(=O)c4ccc(C#N)cc4)[C@@]4(C)Oc5cc(-c6cccnc6)oc(=O)c5[C@H](O)C4[C@@]3(C)CC[C@@H]2O1` (some centres unmarked) [PRD125, 1,11-O-o-methylbenzylidene-7-O-p-cyanobenzoyl-1,7,11-trideacetylpyripyropene A] the IC50 [1] was 0.5 to 1 nM, the “Specific activity” value [1] was “+++ (10<specific activity≦20)” and the half-life at 6 μg/mL [2] was ≥ 9 h. The Half-life [2] was >9 h.

For `CC(=O)OCC1(C)C2C[C@H](OC(=O)c3ccc(C#N)cc3)[C@@]3(C)Oc4cc(-c5cccnc5)oc(=O)c4[C@H](O)C3[C@@]2(C)CC[C@@H]1OC(=O)c1ccccc1` (some centres unmarked) [PRD121, 7-O-p-cyanobenzoyl-1,7-dideacetyl-1-O-benzoylpyripyropene A], the IC50 [1] was 0.5 to 1 nM, the “Specific activity” value [1] was “+++ (10<specific activity≦20)” and the half-life at 6 μg/mL [2] was ≥ 9 h. For the same compound, the Half-life [2] was >9 h.

In the case of `CCCCCC(=O)OCC1(C)C2C[C@H](OC(=O)c3ccc(C#N)cc3)[C@@]3(C)Oc4cc(-c5cccnc5)oc(=O)c4[C@H](O)C3[C@@]2(C)CC[C@@H]1OC(=O)CCCCC` (some centres unmarked) [PRD167, 7-O-p-cyanobenzoyl-1,11-O-dihexanoyl-1,7,11-trideacetylpyripyropene A], the IC50 [1] is reported as 0.5 to 1 nM, the “Specific activity” value [1] is reported as “+++ (10<specific activity≦20)” and the half-life at 6 μg/mL [2] is reported as ≥ 9 h. The Half-life [2] was >9 h.

In the case of `CCc1ccc(C(=O)O[C@H]2CC3C(C)(COC(C)=O)[C@@H](OC(C)=O)CC[C@]3(C)C3[C@@H](O)c4c(cc(-c5cccnc5)oc4=O)O[C@@]32C)cc1` (some centres unmarked) [PRD024, reference compound], the half-life at 6 μg/mL [2] is reported as 1 h and the Half-life [2] is reported as <1 h.

For `CC(=O)OCC1(C)C2C[C@H](OC(=O)c3ccc(C)cc3)[C@@]3(C)Oc4cc(-c5cccnc5)oc(=O)c4[C@H](O)C3[C@@]2(C)CC[C@@H]1OC(C)=O` (some centres unmarked) [PRD009, reference compound], the half-life at 6 μg/mL [2] was 1 h and the Half-life [2] was <1 h.

For `CC(=O)OCC1(C)C2C[C@H](OC(=O)c3cccc(Br)c3)[C@@]3(C)Oc4cc(-c5cccnc5)oc(=O)c4[C@H](O)C3[C@@]2(C)CC[C@@H]1OC(C)=O` (some centres unmarked) [PRD025, reference compound], the half-life at 6 μg/mL [2] was 1 h and the Half-life [2] was <1 h.

For `CC(=O)OCC1(C)C2C[C@H](OC(=O)c3ccccc3C)[C@@]3(C)Oc4cc(-c5cccnc5)oc(=O)c4[C@H](O)C3[C@@]2(C)CC[C@@H]1OC(C)=O` (some centres unmarked) [PRD007, reference compound], the half-life at 6 μg/mL [2] was 1 h and the Half-life [2] was <1 h.

In the case of `CC(=O)OCC1(C)C2C[C@H](OC(=O)c3ccccc3F)[C@@]3(C)Oc4cc(-c5cccnc5)oc(=O)c4[C@H](O)C3[C@@]2(C)CC[C@@H]1OC(C)=O` (some centres unmarked) [PRD026, reference compound], the half-life at 6 μg/mL [2] is reported as 1 h and the Half-life [2] is reported as <1 h.
